Data reported in PubChem BioAssay (NCI).
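Each compound was tested at five concentrations against cells in 96-well plates for 48 hours. TGI marks complete inhibition of growth.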

Columns and labels:
Test in all cases: growth of human tumour cells (NCI), 48 h
786-0 renal = system: 786-0 renal
CCRF-CEM leukemia = system: CCRF-CEM leukemia
COLO 205 colon = system: COLO 205 colon
HCT-116 colon = system: HCT-116 colon
HOP-62 NSCLC = system: HOP-62 NSCLC
HT29 colon = system: HT29 colon
IGROV1 ovarian = system: IGROV1 ovarian
MDA-N = system: MDA-N
MOLT-4 leukemia = system: MOLT-4 leukemia
RPMI-8226 leukemia = system: RPMI-8226 leukemia
RXF 393 renal = system: RXF 393 renal
SK-OV-3 ovarian = system: SK-OV-3 ovarian
SN12C renal = system: SN12C renal
SNB-19 CNS = system: SNB-19 CNS
SR leukemia = system: SR leukemia
T-47D breast = system: T-47D breast
U251 CNS = system: U251 CNS
UACC-257 melanoma = system: UACC-257 melanoma
HOP-92 NSCLC = system: HOP-92 NSCLC
LOX IMVI melanoma = system: LOX IMVI melanoma

| Compound | TGI (786-0 renal) [µM] | TGI (CCRF-CEM leukemia) [µM] | TGI (COLO 205 colon) [µM] | TGI (HCT-116 colon) [µM] | TGI (HOP-62 NSCLC) [µM] | TGI (HT29 colon) [µM] | TGI (IGROV1 ovarian) [µM] | TGI (MDA-N) [µM] | TGI (MOLT-4 leukemia) [µM] | TGI (RPMI-8226 leukemia) [µM] | TGI (RXF 393 renal) [µM] | TGI (SK-OV-3 ovarian) [µM] | TGI (SN12C renal) [µM] | TGI (SNB-19 CNS) [µM] | TGI (SR leukemia) [µM] | TGI (T-47D breast) [µM] | TGI (U251 CNS) [µM] | TGI (UACC-257 melanoma) [µM] | TGI (HOP-92 NSCLC) [µM] | TGI (LOX IMVI melanoma) [µM] |
| --- | --- | --- | --- | --- | --- | --- | --- | --- | --- | --- | --- | --- | --- | --- | --- | --- | --- | --- | --- | --- |
| Cc1ccc(N=N/C(=N/NC(=O)c2cc(Cl)ccc2O)c2ccc(N(CCC#N)CCC#N)cc2C)cc1 | > 100 | > 100 | 44.2 | 54.4 | > 100 | 60.6 | > 100 | > 100 | > 100 | > 100 | > 100 | 74.2 | 85.6 | > 100 | > 100 | 56.2 | > 100 | 47.2 |  |  |
| CCCCS(=O)(=O)CCC(N)P(=O)(O)O (centres undefined) | > 100 | > 100 | > 100 | > 100 | > 100 | > 100 | > 100 | > 100 | > 100 | > 100 |  | > 100 | > 100 | > 100 | > 100 | > 100 | > 100 | > 100 | > 100 | > 100 |
| CC1=NN(c2nc(N)nc(/C(C#N)=C/c3ccccc3O)n2)C(C)(C)C1 | 29.1 | 35.5 | 31.5 | 32.2 | 38.8 | 42.6 | 45.5 | 30.7 | > 100 | 36.2 | 39.5 | 53.2 | 71.9 | 91.7 | > 100 | 31.9 | 41.3 | 38.5 | 36.7 |  |
| O=c1ccn([C@@H]2C[C@H]2CO)c(=O)[nH]1 | > 100 | > 100 | > 100 | > 100 | > 100 | > 100 | > 100 | > 100 | > 100 | > 100 | > 100 |  | > 100 | > 100 | > 100 | > 100 | > 100 | > 100 | > 100 | > 100 |
| CSC1=C(C#N)C(=S)N=C(N)C1C(=O)Nc1ccc(C)cc1 (centres undefined) | > 100 | > 100 | > 100 | > 100 |  | > 100 | > 100 | > 100 | > 100 | > 100 | > 100 | > 100 | > 100 | > 100 | > 100 | > 100 | > 100 | > 100 |  | > 100 |
| O=[N+]([O-])C(=C(Cl)Cl)C(Cl)=C(Cl)Cl | 0.648 |  | 0.254 | 0.849 | 25.3 | 0.852 | 1.15 | 1.24 | 0.175 |  | 0.091 | 9.51 | 2.22 | 11.2 | > 100 | 0.289 | 7.26 | 0.74 | 1.03 | 0.0351 |
| S=C(N1CCN(c2ccc(Cl)c(Cl)c2)CC1)N1CCN(c2ccc(Cl)c(Cl)c2)CC1 | 22.7 | 9.44 | 22.4 | 19.4 | 26.5 | 21.3 | 22.5 | 23.8 | 19.9 | 39.4 | 35.1 | 25.1 |  | 26.7 | 5.82 | 23.3 | 28 | 30.9 |  |  |
| O=c1c2cccnc2n2n1Cc1ccccc1C2 | > 100 | > 100 |  | > 100 | > 100 | > 100 | > 100 | > 100 | > 100 | > 100 | > 100 | > 100 | > 100 |  | > 100 | > 100 | > 100 | > 100 | > 100 | > 100 |
| Nc1ncc(Br)c(NCC2(CO)CCC2)n1 | > 100 | > 100 | > 100 | > 100 | > 100 | > 100 | > 100 | > 100 | > 100 | > 100 | > 100 |  | > 100 |  | > 100 | 63.4 | > 100 | > 100 | > 100 | > 100 |
| COc1ccc(N2CN3OC(=O)N(c4ccc(OC)cc4)[C@@]3(c3ccccc3)C2)cc1 | > 100 |  | 80.1 | > 100 | > 100 | 50.6 | > 100 | 22.6 | > 100 | > 100 | 74.6 | > 100 | > 100 | > 100 | 66.2 | 69.2 | > 100 | > 100 | > 100 | > 100 |
| CCOC(=O)c1c(SC(=O)c2ccc(C(C)(C)C)cc2)n(-c2ccccc2)c(=S)n(-c2ccccc2)c1=O | > 100 | > 100 | > 100 | > 100 | > 100 | > 100 | > 100 | > 100 | > 100 |  | > 100 | > 100 | > 100 | > 100 | > 100 | > 100 | > 100 | > 100 | > 100 | > 100 |
| Cc1ccc(Cc2n[nH]c(=O)[nH]2)cc1 | > 100 | > 100 | > 100 | > 100 | > 100 | > 100 | > 100 | > 100 | > 100 |  |  | > 100 | > 100 | > 100 | > 100 | > 100 | > 100 | > 100 | > 100 | > 100 |
| CC(=O)Oc1c(C)c2c(c3ncccc13)OC(C)C2 (centres undefined) | 26.7 | 38.5 | 35.7 | 32.3 | 30.9 | 36.8 | 20.1 | 32.3 | 25.9 | 45.1 | 30.9 | 54.2 | 30.1 | > 100 | 22.7 | 34.8 | 28.8 | 28.6 | 28.2 |  |
| C=CC[C@H]1O[Si](C(C)(C)C)(C(C)(C)C)[C@H](C)[C@H]1C | > 100 | > 100 | > 100 | > 100 | > 100 | > 100 | > 100 | > 100 | > 100 |  |  | > 100 | > 100 | > 100 | > 100 | > 100 | > 100 | > 100 | > 100 | > 100 |
| Cc1nnc2n1N=C(c1ccccc1)/C(=C/c1ccc(-c3ccc(Cl)cc3)o1)S2 | 27.2 | 16.4 | 41.5 | 25.9 | 49.8 | 44.7 | 36.6 | 34 | 23 | 26.8 | 26.7 | > 100 | 35.7 | 35 | 42.1 | 42.4 | 24.4 | 36.2 | 32.6 |  |
| O=C(NC(=S)Nc1ccc(Br)cc1)c1ccc2c(c1)Sc1ccccc1S2 | 30.6 | 54.1 | > 100 | 51 | 31 | 95.1 | 30.2 | > 100 | 26.7 |  |  | 33 | 38.4 | 54.4 | 35.5 | 33.4 | 35 | 54.5 | 32.5 | 61.4 |
| C=CCC1(O)CC(n2cc(C)c(=O)[nH]c2=O)OC1CO[Si](C)(C)C(C)(C)C (centres undefined) | > 100 | > 100 | 42.7 | > 100 | > 100 | > 100 | > 100 | > 100 | > 100 | 97.7 | > 100 |  | > 100 | > 100 | > 100 | > 100 | > 100 | > 100 | > 100 | 89.6 |
| CN(C)CCNc1ccc([N+](=O)[O-])c2sc3ccccc3c(=O)c12 | 20.8 | > 100 | 14.3 | 11.3 | 8.36 | 32.1 | 7.66 | 21.6 | > 100 | 7.52 | 38.1 | > 100 | > 100 | 43.2 | 22.9 | > 100 | > 100 | 19.6 | 51.2 |  |
| CCCN(CCC)CCc1ccc(OC2=CCN(C)CC2)cc1 | > 100 | > 100 | > 100 | > 100 | > 100 | 46.4 | > 100 | > 100 | > 100 | > 100 | > 100 | > 100 | > 100 | > 100 | 81.7 | > 100 | > 100 | 43.9 |  | 89.8 |
| N#CC(C#N)=C1C(=Cc2ccc(OCCCCCCCCCCSSCCCCCCCCCCOc3ccc(C=C4C(=C(C#N)C#N)c5ccccc5C4=C(C#N)C#N)cc3)cc2)C(=C(C#N)C#N)c2ccccc21 | 41.7 |  |  | 30.8 | 47.6 | 34.1 | > 100 | 88.3 | 80 | > 100 | 67.2 |  |  |  | 68 | > 100 | 46.8 | > 100 | 34.9 | 35.6 |
| O=C1N(C2CCCCC2)C(=O)N1C1CCCCC1 | > 67.6 | 2.07 | 16.2 | 14.1 | 31.5 | 25.3 | > 100 | 17 | 10.2 | 0.935 |  | 59.9 | 16.1 | 29.9 | 8.83 | 17.4 | 18.7 | 19.4 | 19.5 | 11.1 |
| C1=CC2(C=CC13O[C@H](C1CCCCC1)[C@@H](C1CCCCC1)O3)O[C@H](C1CCCCC1)[C@@H](C1CCCCC1)O2 | > 50 |  | > 50 | > 50 | > 50 | > 50 | > 50 | > 50 | > 50 | > 50 | > 50 | > 50 | > 50 | > 50 | > 50 | > 50 | > 50 | > 50 |  | > 50 |
| NC(=O)C(=CNC(N)=S)C(N)=O | > 100 | > 100 | > 100 | > 100 | > 100 | > 100 | > 100 | > 100 | > 100 | > 100 | > 100 | > 100 | > 100 | > 100 | > 100 | > 100 | > 100 | > 100 |  | > 100 |
| C[N+](C)(CCCn1ccnc1[N+](=O)[O-])CCCn1ccnc1[N+](=O)[O-] | > 100 | > 100 | > 100 | > 100 | > 100 | > 100 | > 100 | > 100 | > 100 | > 100 | > 100 | > 100 | > 100 |  | > 100 | > 100 | > 100 | > 100 |  | > 100 |
| COc1ccc(NC(=S)Nc2cc(C)cc(C)n2)cc1 | > 100 | > 100 | > 100 | > 100 | > 100 | > 100 | > 100 | > 100 | > 100 | > 100 | > 100 | > 100 | > 100 | > 100 | > 100 | > 100 | > 100 | > 100 |  | > 100 |
